Experimental data published in EPA's CvTdb concentration-time database.

Columns and labels:
Mouse [1] = assay: concentration in plasma after dosing; settings: 0.25 h; dosed: 2-Hydroxy-4-methoxybenzophenone; 250 mg/kg; oral; Male; B6C3F1
Rat [2] = assay: concentration in plasma after dosing; settings: dosed: 2-Hydroxy-4-methoxybenzophenone, 500 mg/kg, oral, Male, F344
Rat [3] = assay: concentration in plasma after dosing; settings: dosed: 2-Hydroxy-4-methoxybenzophenone, 8 mg/kg, iv, Male, F344
Mouse [4] = assay: concentration in plasma after dosing; settings: 0.25 h; dosed: 2-Hydroxy-4-methoxybenzophenone; 50 mg/kg; iv; Male; B6C3F1
Mouse [5] = assay: concentration in plasma after dosing; settings: dosed: 2-Hydroxy-4-methoxybenzophenone, 100 mg/kg, oral, Male, B6C3F1
Rat [6] = assay: concentration in plasma after dosing; settings: 4 h; dosed: 2-Hydroxy-4-methoxybenzophenone; 500 mg/kg; oral; Male; F344
Rat [7] = assay: concentration in plasma after dosing; settings: dosed: Nitrite, 20 mg/kg, iv, Male, F344
Rat [8] = assay: concentration in plasma after dosing; settings: 2 min; dosed: Nitrite; 40 mg/kg; oral; Female; F344
Rat [9] = assay: concentration in plasma after dosing; settings: 10 min; dosed: Nitrite; 40 mg/kg; oral; Female; F344
Rat [10] = assay: concentration in plasma after dosing; settings: dosed: Nitrite, 20 mg/kg, iv, Male, F344; remark: listed apart in the source
Rat [11] = assay: concentration in plasma after dosing; settings: dosed: Nitrite, 20 mg/kg, iv, Male, F344; remark: listed apart in the source
Rat [12] = assay: concentration in plasma after dosing; settings: dosed: 678-39-7, 12 mg/kg, iv, Male, F344
Rat [13] = assay: concentration in plasma after dosing; settings: dosed: 678-39-7, 40 mg/kg, iv, Female, Harlan Sprague-Dawley
Rat [14] = assay: concentration in kidney after dosing; settings: 3 h; dosed: Perfluorooctanoic acid; 12 mg/kg; oral; Male; Harlan Sprague Dawley
Rat [15] = assay: concentration in kidney after dosing; settings: 6 h; dosed: Fluorotelomer alcohol 8+2; 24 mg/kg; oral; Male; Harlan Sprague Dawley
Rat [16] = assay: concentration in plasma after dosing; settings: 0.25 h; dosed: 678-39-7; 12 mg/kg; iv; Male; F344
Rat [17] = assay: concentration in kidney after dosing; settings: 12 h; dosed: Fluorotelomer alcohol 8+2; 24 mg/kg; oral; Male; Harlan Sprague Dawley
Rat [18] = assay: concentration in kidney after dosing; settings: 12 h; dosed: Perfluorooctanoic acid; 80 mg/kg; oral; Female; Harlan Sprague Dawley
Rat [19] = assay: concentration in kidney after dosing; settings: 0.5 h; dosed: Fluorotelomer alcohol 8+2; 80 mg/kg; oral; Female; Harlan Sprague Dawley
Rat [20] = assay: concentration in kidney after dosing; settings: 3 h; dosed: Perfluorooctanoic acid; 80 mg/kg; oral; Female; Harlan Sprague Dawley
Rat [21] = assay: concentration in liver after dosing; settings: 12 h; dosed: Perfluorooctanoic acid; 12 mg/kg; oral; Male; Harlan Sprague Dawley
Rat [22] = assay: concentration in kidney after dosing; settings: 6 h; dosed: Fluorotelomer alcohol 8+2; 24 mg/kg; oral; Male; Harlan Sprague Dawley; remark: listed apart in the source
Rat [23] = assay: concentration in kidney after dosing; settings: 1 h; dosed: Potassium Perfluorobutane Sulfonate; 20 mg/kg; oral; Male; Harlan Sprague Dawley
Rat [24] = assay: concentration in plasma after dosing; settings: dosed: Potassium Perfluorobutane Sulfonate, 4 mg/kg, iv, Male, F344
Rat [25] = assay: concentration in brain after dosing; settings: 0.5 h; dosed: Potassium Perfluorobutane Sulfonate; 20 mg/kg; oral; Male; Harlan Sprague Dawley
Rat [26] = assay: concentration in plasma after dosing; settings: dosed: Potassium Perfluorobutane Sulfonate, 4 mg/kg, oral, Male, Harlan Sprague Dawley
Rat [27] = assay: concentration in kidney after dosing; settings: 1 h; dosed: Potassium Perfluorobutane Sulfonate; 20 mg/kg; oral; Male; Harlan Sprague Dawley; remark: listed apart in the source
Rat [28] = assay: concentration in brain after dosing; settings: 0.5 h; dosed: Potassium Perfluorobutane Sulfonate; 20 mg/kg; oral; Female; Harlan Sprague Dawley
rat [29] = assay: concentration in kidney after dosing (ugEq/g tissue); settings: dosed: benzo[a]pyrene, iv, male, Wistar

COc1ccc(C(=O)c2ccccc2)c(O)c1 [2-Hydroxy-4-methoxybenzophenone]
Settings | concentration in plasma [ng/mL]
Mouse [1] | 289
Mouse [4] | 7710
Rat [6] | 345

concentration in plasma [ng/mL]
Settings | 0.25 h | 2 h | 2.5 min | 3 h | 4 h | 10 min
Mouse [5] | 113 | 24.1 | 84.8 | 18.6 | – | 27.8
Rat [2] | – | – | 6.4 | – | 578 | –
Rat [3] | 1950 | 84.6 | – | – | – | –

O=N[O-] [Nitrite]
concentration in plasma [ng/mL]
Settings | 0.75 h | 1.25 h | 2 min | 10 min
Rat [7] | – | 2000 | – | 15400
Rat [10] | 3400 | – | 14300 | –
Rat [11] | 4400 | – | 9000 | –

Settings | concentration in plasma [ng/mL]
Rat [8] | 1900
Rat [9] | 8500

O=C(O)C(F)(F)C(F)(F)C(F)(F)C(F)(F)C(F)(F)C(F)(F)C(F)(F)F [Perfluorooctanoic acid]
concentration in plasma [ng/mL]
Settings | 0.75 h | 3 h | 5 min | 12 h
Rat [12] | – | 485 | 58.3 | –
Rat [13] | 1470 | – | – | 372

Settings | concentration in kidney [ng/g] | concentration in liver [ng/g] | concentration in plasma [ng/mL]
Rat [14] | 36800 | – | –
Rat [15] | 421 | – | –
Rat [16] | – | – | 176
Rat [17] | 365 | – | –
Rat [18] | 67800 | – | –
Rat [19] | 284 | – | –
Rat [20] | 49700 | – | –
Rat [21] | – | 56700 | –
Rat [22] | 381 | – | –

O=S(=O)([O-])C(F)(F)C(F)(F)C(F)(F)C(F)(F)F.[K+] [Potassium Perfluorobutane Sulfonate]
Settings | concentration in brain [ng/g] | concentration in kidney [ng/g]
Rat [23] | – | 22700
Rat [25] | 518 | –
Rat [27] | – | 28600
Rat [28] | 518 | –

concentration in plasma [ng/mL]
Settings | 0.5 h | 3 h | 5 min | 12 h
Rat [24] | 19100 | – | – | 1620
Rat [26] | – | 15100 | 320 | –

c1ccc2c(c1)cc1ccc3cccc4ccc2c1c34 [benzo[a]pyrene]
concentration in kidney, rat [29]
Settings | 2 mg/kg | 6 mg/kg | 15 mg/kg
0.5 h | 4.64 | 7.09 | 20.1
0.75 h | 4.02 | 7.57 | 16.8
1 h | 2.67 | 6.12 | 15.1
1.5 h | 1.31 | 2.25 | 13.6
2 h | 0.21 | 0.8 | 5.37
3 h | 0.23 | 0.2 | 1.77
4 h | 0.07 | 0.15 | 0.8
5 h | 0.06 | 0.09 | 0.36
5 min | 7 | 12.4 | 30.8
6 h | 0.08 | 0.11 | 0.35
8 h | 0.08 | 0.09 | 0.25
10 min | 7.09 | 15.9 | 25.2
20 min | 7.68 | 11.7 | 22.5
24 h | – | – | 0.05
32 h | – | – | 0.01
